Test results: ChEMBL document CHEMBL1781888, “Marianins A and B, prenylated phenylpropanoids from Mariannaea camptospora” (J Nat Prod, 2011)
Converted amounts (≈) assume the structure as drawn. The source made the active and inactive calls. No cut-off for these calls is given here.

Experiments:
Micrococcus luteus = experiment: Antibacterial activity against Micrococcus luteus ATCC 9343; assay type: functional
Escherichia coli = experiment: Antibacterial activity against Escherichia coli NIH-JC2 at 30 microg/mL; assay type: functional, organism-based
Candida albicans = experiment: Antifungal activity against Candida albicans IFO1594 at 30 microg/mL; assay type: functional, organism-based
HeLa = experiment: Cytotoxicity against human HeLa cells after 48 hrs by MTT assay; assay type: functional, cell-based
MCF7 = experiment: Cytotoxicity against human MCF7 cells after 48 hrs by MTT assay; assay type: functional, cell-based; conditions: MCF7, 48 h

Compound | MIC (Micrococcus luteus) [µg/mL] | inhibition (Escherichia coli) | inhibition (Candida albicans) | IC50 (HeLa) [µM] | IC50 (MCF7) [µM]
CC(C)=CCOc1cc(C)c2c(OCC=C(C)C)cc(=O)oc2c1 [MARIANIN A] | 15 (≈ 45.7 µM) | inactive | inactive | 34 | 39
C=CC(C)(C)CC(=O)c1c(C)cc(OCC=C(C)C)cc1O [MARIANIN B] | 30 (≈ 99.2 µM) | inactive | inactive | > 100 | > 100
